The values that follow come from BindingDB's records for doi:10.1016/j.bmcl.2004.04.065 (Eli Lilly, 2004).

The target in the assay is TGF-beta receptor type-1. Put plainly: Inhibitory activity against TGF-beta type I receptor.

Regarding `c1ccc(-c2nn3c(c2-c2ccnc4ccccc24)CCC3)nc1` [4-(2-(pyridin-2-yl)-5,6-dihydro-4H-pyrrolo[1,2-b]pyrazol-3-yl)quinoline], the IC50 stood at 104 nM.

`Fc1ccc(-c2nn3c(c2-c2ccnc4ccccc24)CCC3)nc1` [4-[2-(5-Fluoro-pyridin-2-yl)-5,6-dihydro-4H-pyrrolo[1,2-b]pyrazol-3-yl]-quinoline] had a half-inhibitory concentration (IC50) of 151 nM.

As to `CCc1cccc(-c2nn3c(c2-c2ccnc4ccccc24)CCC3)n1` [4-[2-(6-Ethyl-pyridin-2-yl)-5,6-dihydro-4H-pyrrolo[1,2-b]pyrazol-3-yl]-quinoline], the IC50 stood at 71 nM.

The molecule `CCS(=O)(=O)c1ccc2c(-c3c(-c4ccccn4)nn4c3CCC4)ccnc2c1` [7-Ethanesulfonyl-4-(2-pyridin-2-yl-5,6-dihydro-4H-pyrrolo[1,2-b]pyrazol-3-yl)-quinoline] yielded an IC50 of 9290 nM.

In turn, `CCSc1ccc2c(-c3c(-c4ccccn4)nn4c3CCC4)ccnc2c1` [7-Ethylsulfanyl-4-(2-pyridin-2-yl-5,6-dihydro-4H-pyrrolo[1,2-b]pyrazol-3-yl)-quinoline] yielded an IC50 of 110 nM.

As to `Cc1cccc(-c2nn3c(c2-c2ccnc4cc(Cl)ccc24)CCC3)n1` [7-chloro-4-(2-(6-methylpyridin-2-yl)-5,6-dihydro-4H-pyrrolo[1,2-b]pyrazol-3-yl)quinoline], the IC50 is 48 nM.

By IC50 is commonly meant the concentration at which inhibition is half-maximal. Read a high IC50 as lower potency.
